Test results from patent US8772283B2, “Imidazo-oxazine compound or salt thereof” (Taiho Pharmaceutical Co., Ltd., priority 2011, dated 2014).

Columns and labels:
human AKT2 = human AKT2 (Homo sapiens (Human), UniProt P31751); assay: AKT2 kinase activity inhibition (TR-FRET, biotinylated Crosstide substrate); assay type: biochemical; conditions: preincubation 120 min at 25° C.; ATP 150 μM; Crosstide 500 nM
In short: (§1)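 Middle-T-tagged human AKT1 or AKT2, Sf9-expressed, affinity-purified and PDK1-activated, was preincubated 120 min at 25 °C with compound in 15 mM Tris-HCl pH 7.5, 0.01% Tween-20, 2 mM DTT. Kinase reaction then ran 60 min with 500 nM biotin-Crosstide, 10 mM MgCl2 and 150 μM ATP before EDTA stop. IC50 came from the Eu/APC TR-FRET 665/620 nm ratio.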

[1] = test system: S6 ribosomal protein (S6RP) Ser240/Ser244 phosphorylation; assay: Phosphorylated S6RP (Ser240/Ser244) inhibitory activity in cultured cell A2780 (Meso Scale Discovery assay); assay type: cell-based; conditions: A2780 cells, 3 hours treatment; average±standard deviation of three independent runs
Procedure: (§2) To evaluate the inhibitory activity of the above compounds against AKT activity, AKT Ser 473 phosphorylation and phosphorylation of S6 ribosomal protein (S6RP) (a downstream factor of Akt signal) at Ser240/Ser244, which serve as indices for the activation status of AKT, were measured in extracts of cultured cells which had been treated with the above compounds. For the measurement, assays (manufactured by Meso Scale Discovery) utilizing electrochemiluminescence based on the ELISA principle were used for both AKT Ser473 and S6RP Ser240/Ser244.
(§3) In 10% FBS-containing RPMI1640 medium (Invitrogen), ovarian cancer-derived A2780 cells in the logarithmic growth phase were seeded at 4.5×10^4 cells/150 μL/well into polylysine coated 96-well flat-bottom plates, and cultured for one day in an incubator at 5% CO2, 37° C., and 100% humidity.
(§4) Each compound of the present invention was supplied as a stock solution prepared at a concentration of 10 mM in DMSO. Using this solution, a dilution series was prepared in DMSO solvent at 200-fold of the final concentrations (10, 3, 1, 0.3, 0.1, 0.03, 0.01, 0.003 μM). The day after the cells were seeded, the compound dilution series at a 200-fold concentration was diluted 50-fold in medium for cell culture. To each well of the aforementioned A2780 cell culture plates, 50 μL of the diluted compound dilution series was added. The plates were then placed back in the incubator, and the culture was continued for 3 hours at 5% CO2, 37° C., and 100% humidity.
(§5) Meso Scale Discovery's 96-Well Multi-Spot Phospho-AKT (Ser473) Assay (K151CAA-3) and Phospho (Ser240/244)/Total S6RP Assay (K11139D-2) were used. In advance, a necessary amount of the supplied cell extract buffer was dispensed, and protease inhibitor cocktail and protein phosphatase inhibitor cocktail were added thereto, and kept cold on ice. The culture plates of the cells cultured with the compounds for 3 hours were taken out and the medium was removed. 100 μL of the cell extract buffer kept cold was added per well, followed by extraction by shaking at 300 r.p.m. for 1 hour using a plate shaker while maintaining a temperature of 4° C. Using the obtained extracts at 40 μL/well for the Phospho-AKT (Ser473) Assay and at 15 μL/well for the Phospho(Ser240/244)/Total S6RP Assay, reactions were conducted at 4° C. overnight with shaking at 300 r.p.m. according to the document attached to the kits. The next day, after the wells were washed three times with the supplied wash buffer, 50 μL/well of SULFO-TAG™ sandwich antibody solution was added, and reactions were carried out at room temperature for 1 hour. The wells were washed with the wash buffer three times, and 150 μL of the supplied Read Buffer T was added to each well. The amounts of phosphorylation of AKT and S6RP were measured by a SECTOR Imager 6000 plate reader (manufactured by Meso Scale Discovery) within 30 minutes of the Read Buffer T addition.
(§6) The extraction buffer-only background was subtracted from all of the measurement values, and AKT and S6RP phosphorylation signals in the control cell extract treated with only DMSO were defined as 100%. The compound concentrations and the levels of phosphorylated AKT and S6PR (expressed as a percentage relative to the control) in each concentration were plotted, and IC50 concentration (nM) that achieves 50% inhibition of the control was determined.

[2] = test system: AKT Ser473 phosphorylation; assay: Phosphorylated AKT (Ser473) inhibitory activity in cultured cell A2780 (Meso Scale Discovery assay); assay type: cell-based; conditions: A2780 cells, 3 hours treatment; average±standard deviation of three independent runs
Procedure: as §2, §3, §4, §5, §6

human AKT1 = human AKT1 (Homo sapiens (Human), UniProt P31749); assay: AKT1 kinase activity inhibition (TR-FRET, biotinylated Crosstide substrate); assay type: biochemical; conditions: preincubation 120 min at 25° C.; ATP 150 μM; Crosstide 500 nM
human AKT1, sequence (P31749 whole entry): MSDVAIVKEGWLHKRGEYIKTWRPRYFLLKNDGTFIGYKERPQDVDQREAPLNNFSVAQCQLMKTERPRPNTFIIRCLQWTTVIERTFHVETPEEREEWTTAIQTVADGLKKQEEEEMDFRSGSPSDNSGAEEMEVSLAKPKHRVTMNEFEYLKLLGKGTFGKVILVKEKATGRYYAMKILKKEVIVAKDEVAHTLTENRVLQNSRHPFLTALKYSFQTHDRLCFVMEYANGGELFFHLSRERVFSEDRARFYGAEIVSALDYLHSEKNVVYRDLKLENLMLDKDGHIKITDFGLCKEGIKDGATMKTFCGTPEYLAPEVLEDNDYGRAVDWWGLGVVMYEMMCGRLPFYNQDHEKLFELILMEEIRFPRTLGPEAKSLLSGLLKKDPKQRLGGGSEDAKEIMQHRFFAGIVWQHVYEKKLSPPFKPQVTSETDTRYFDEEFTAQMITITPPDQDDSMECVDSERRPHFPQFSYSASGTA
In short: as §1

human AKT2, sequence (P31751 whole entry): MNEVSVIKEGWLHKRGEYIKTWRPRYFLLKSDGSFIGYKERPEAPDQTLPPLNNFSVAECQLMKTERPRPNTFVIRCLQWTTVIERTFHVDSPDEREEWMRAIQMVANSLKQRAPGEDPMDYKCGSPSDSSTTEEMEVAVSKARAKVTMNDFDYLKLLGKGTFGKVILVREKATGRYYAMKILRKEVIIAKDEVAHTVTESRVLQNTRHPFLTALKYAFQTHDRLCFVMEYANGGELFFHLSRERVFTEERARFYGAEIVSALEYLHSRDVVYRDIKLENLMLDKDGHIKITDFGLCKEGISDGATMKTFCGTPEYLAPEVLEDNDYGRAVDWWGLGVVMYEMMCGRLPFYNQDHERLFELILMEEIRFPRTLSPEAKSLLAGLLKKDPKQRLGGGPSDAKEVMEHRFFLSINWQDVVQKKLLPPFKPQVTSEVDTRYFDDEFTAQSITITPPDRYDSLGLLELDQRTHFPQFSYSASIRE

Row | SMILES | IC50 (human AKT2) [nM] | IC50 [1] [nM] | IC50 [2] [nM] | IC50 (human AKT1) [nM]
1 | N[C@]1(c2ccc(-c3nc4n(c3-c3ccccc3)COc3cnccc3-4)cc2)C[C@](O)(C2CC2)C1 [Example 35, trans-3-amino-1-cyclopropyl-3-(4-(3-phenyl-5H-imidazo[1,2-c]pyrido[4,3-e][1,3]oxazin-2-yl)phenyl)cyclobutanol] | 0.48 | 33 ± 8 | 24 ± 3 | 1.6
2 | C[C@]1(O)C[C@@](N)(c2ccc(-c3nc4n(c3-c3ccccc3)COc3cnccc3-4)cc2)C1 [Example 36, trans-3-amino-1-methyl-3-(4-(3-phenyl-5H-imidazo[1,2-c]pyrido[4,3-e][1,3]oxazin-2-yl)phenyl)cyclobutanol] | 0.74 | 36 ± 3 | 32 ± 6 | 2
3 | N[C@]1(c2ccc(-c3nc4n(c3-c3ccccc3)COc3ncccc3-4)cc2)C[C@](O)(C2CC2)C1 [Example 38, trans-3-amino-1-cyclopropyl-3-(4-(3-phenyl-5H-imidazo[1,2-c]pyrido[3,2-e][1,3]oxazin-2-yl)phenyl)cyclobutanol] | 0.91 | 34 ± 6 | 23 ± 4 | 1.4
4 | NC1(c2ccc(-c3nc4n(c3-c3ccccc3)COc3nccnc3-4)cc2)CC(O)(C2CC2)C1 (stereo not drawn) [Example 41, trans-3-amino-1-cyclopropyl-3-(4-(3-phenyl-5H-imidazo[1,2-c]pyrazino[2,3-e][1,3]oxazin-2-yl)phenyl)cyclobutanol] | 3.3 | 100 ± 34 | 70 ± 16 | 5.4
5 | C[C@]1(O)C[C@@](N)(c2ccc(-c3nc4n(c3-c3ccccc3)COc3ccc(CO)cc3-4)cc2)C1 [Example 44, trans-3-amino-3-(4-(9-(hydroxymethyl)-3-phenyl-5H-benzo[e]imidazo[1,2-c][1,3]oxazin-2-yl)phenyl)-1-methylcyclobutanol] | 0.55 | 46 ± 17 | 33 ± 7 | 2.2
6 | C[C@]1(O)C[C@@](N)(c2ccc(-c3nc4n(c3-c3ccccc3)COc3ccc(C#N)cc3-4)cc2)C1 [Example 46, 2-(4-(trans-1-amino-3-hydroxy-3-methylcyclobutyl)phenyl)-3-phenyl-5H-benzo[e]imidazo[1,2-c][1,3]oxazine-9-carbonitrile] | 0.97 | 53 ± 6 | 32 ± 5 | 4.4
7 | C[C@]1(O)C[C@@](N)(c2ccc(-c3nc4n(c3-c3ccccc3)COc3ccc(-c5ccn[nH]5)cc3-4)cc2)C1 [Example 48, trans-3-amino-1-methyl-3-(4-(3-phenyl-9-(1H-pyrazol-5-yl)-5H-benzo[e]imidazo[1,2-c][1,3]oxazin-2-yl)phenyl)cyclobutanol] | 0.32 | 86 ± 27 | 48 ± 5 | 0.8
8 | CNC(=O)c1ccc2c(c1)OCn1c-2nc(-c2ccc([C@]3(N)C[C@](C)(O)C3)cc2)c1-c1ccccc1 [Example 56, 2-(4-(trans-1-amino-3-hydroxy-3-methylcyclobutyl)phenyl)-N-methyl-3-phenyl-5H-benzo[e]imidazo[1,2-c][1,3]oxazine-8-carboxamide] | 0.49 | 38 ± 12 | 25 ± 3 | 1.8
9 | CCONC(=O)c1ccc2c(c1)OCn1c-2nc(-c2ccc([C@]3(N)C[C@](C)(O)C3)cc2)c1-c1ccccc1 [Example 59, 2-(4-(trans-1-amino-3-hydroxy-3-methylcyclobutyl)phenyl)-N-ethoxy-3-phenyl-5H-benzo[e]imidazo[1,2-c][1,3]oxazine-8-carboxamide] | 0.53 | 42 ± 14 | 26 ± 3 | 2.1
